Measurements reported in PubChem BioAssay AID1195 (EPA DSSTox, 2008).

Test system: human maximum recommended daily dose, FDA database
Assay: DSSTox (FDAMDD) FDA Maximum (Recommended) Daily Dose Database
Conditions: hits give low values
Summary of the method: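 MRDD values come from clinical trials with daily oral dosing, usually for 3–12 months, for the average adult, in mg/day converted to mg/kg-bw/day assuming 60 kg. Antineoplastic mg/m2 doses are divided by 37. Activity score maps log10(1/MRDD mmol) onto 1–100.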

[1] = TherapeuticCategory: antibacterial
[2] = TherapeuticCategory: glucocorticoid
[3] = TherapeuticCategory: antidepressant
[4] = TherapeuticCategory: antihistaminic

## CO[C@@]1(NC(=O)C2SC(=C(C(N)=O)C(=O)O)S2)C(=O)N2C(C(=O)O)=C(CSc3nnnn3C)CS[C@@H]21 (some centres undefined)
[1]
  maximum recommended daily dose (mmol/kg-bw/day): 0.116

## COc1cc(C(=O)NS(=O)(=O)c2ccccc2C)ccc1Cc1cn(C)c2ccc(NC(=O)OC3CCCC3)cc12
TherapeuticCategory: antiasthmatic
  maximum recommended daily dose (mmol/kg-bw/day): 0.00116

## C[C@H]1C[C@H]2[C@@H]3CCC4=CC(=O)C=C[C@]4(C)[C@@]3(F)[C@@H](O)C[C@]2(C)[C@@]1(O)C(=O)CO
[2]
  maximum recommended daily dose (mmol/kg-bw/day): 0.000382

## O=C(O)C1=C(CSc2nnnn2CS(=O)(=O)O)CS[C@@H]2[C@H](NC(=O)[C@H](O)c3ccccc3)C(=O)N12
[1]
  maximum recommended daily dose (mmol/kg-bw/day): 0.0308

## CCC1(c2ccccc2)C(=O)NC(=O)NC1=O
TherapeuticCategory: anticonvulsant, sedative, hypnotic
  maximum recommended daily dose (mmol/kg-bw/day): 0.0093

## NC(=O)[C@@H]1CCCN1C(=O)[C@H](Cc1cnc[nH]1)NC(=O)[C@@H]1CCC(=O)N1
TherapeuticCategory: prohormone
  maximum recommended daily dose (mmol/kg-bw/day): 2.3e-05

## COc1ccc2cc1Oc1cc3c(cc1OC)CC[N+](C)(C)[C@H]3Cc1ccc(cc1)Oc1c(OC)c(OC)cc3c1[C@@H](C2)[N+](C)(C)CC3
TherapeuticCategory: skeletal muscle relaxant
  maximum recommended daily dose (mmol/kg-bw/day): 0.000441

## COc1ccnc(CS(=O)c2nc3ccc(OC(F)F)cc3[nH]2)c1OC (centres undefined)
TherapeuticCategory: antiulcerative
  maximum recommended daily dose (mmol/kg-bw/day): 0.00174

## CCCCCCCCCCCCCCCC(=O)OCC(=O)[C@@]1(O)[C@H](C)C[C@H]2[C@@H]3CCC4=CC(=O)C=C[C@]4(C)[C@@]3(F)[C@@H](O)C[C@@]21C
TherapeuticCategory: glucocorticoid, anti inflammatory
  maximum recommended daily dose (mmol/kg-bw/day): 0.000238

## CCCCNc1cc(C(=O)O)cc(S(N)(=O)=O)c1Oc1ccccc1
TherapeuticCategory: diuretic
  maximum recommended daily dose (mmol/kg-bw/day): 0.000458

## CNCCC=C1c2ccccc2CCc2ccccc21
[3]
  maximum recommended daily dose (mmol/kg-bw/day): 0.00634

## CC(c1cc2ccccc2s1)N(O)C(N)=O (centres undefined)
TherapeuticCategory: antiasthmatic, anti inflammatry
  maximum recommended daily dose (mmol/kg-bw/day): 0.169

## C[C@@H]1O[C@@]2(CS1)CN1CCC2CC1
TherapeuticCategory: selective agonist (tear and salivary production)
  maximum recommended daily dose (mmol/kg-bw/day): 0.00613

## CC(C)[N+](C)(CCOC(=O)C1c2ccccc2Oc2ccccc21)C(C)C
TherapeuticCategory: anticholinergic
  maximum recommended daily dose (mmol/kg-bw/day): 0.00279

## CC(C)N=C(N)/N=C(\N)Nc1ccc(Cl)c(Cl)c1
TherapeuticCategory: antimalarial
  maximum recommended daily dose (mmol/kg-bw/day): 0.00116

## O=C(O)c1cc(N=Nc2ccc(S(=O)(=O)Nc3ccccn3)cc2)ccc1O
TherapeuticCategory: treatment of ulcerative colitis and Crohn's disease
  maximum recommended daily dose (mmol/kg-bw/day): 0.334

## Cc1cc(O)c2ccccc2c1O
TherapeuticCategory: prothrombogenic vitamin
  maximum recommended daily dose (mmol/kg-bw/day): 0.000959

## CC(=O)Nc1ccccc1
TherapeuticCategory: antipyretic, analgesic
  maximum recommended daily dose (mmol/kg-bw/day): 0.037

## Nc1nc(=S)c2[nH]cnc2[nH]1
TherapeuticCategory: antineoplastic
  maximum recommended daily dose (mmol/kg-bw/day): 0.0324

## CC(=O)NS(=O)(=O)c1cc(N)ccc1S(=O)(=O)c1ccc(N)cc1
[1]
  maximum recommended daily dose (mmol/kg-bw/day): 0.17

## CCN(CC)C(=S)S
TherapeuticCategory: immunomodulator, chelating agent
  maximum recommended daily dose (mmol/kg-bw/day): 0.0584

## CC1=C(C(=O)O)N2C(=O)[C@@H](NC(=O)[C@H](N)c3ccccc3)[C@H]2SC1
[1]
  maximum recommended daily dose (mmol/kg-bw/day): 0.192

## CN(C)CCN(Cc1ccccc1)c1ccccn1
[4]
  maximum recommended daily dose (mmol/kg-bw/day): 0.0392

## CN1CCC(=C2c3ccccc3CCc3cccnc32)CC1
[4]
  maximum recommended daily dose (mmol/kg-bw/day): 0.000115

## N[C@@H](Cc1cnc[nH]1)C(=O)O
TherapeuticCategory: none
  maximum recommended daily dose (mmol/kg-bw/day): 0.645

## CCc1nn(CCCN2CCN(c3cccc(Cl)c3)CC2)c(=O)n1CC
[3]
  maximum recommended daily dose (mmol/kg-bw/day): 0.00662

## CC[N+](C)(C)Cc1ccccc1Br
TherapeuticCategory: antiadrenergic, cardiac depressant
  maximum recommended daily dose (mmol/kg-bw/day): 0.0121

## C[N+](C)(C)CC(=O)[O-]
TherapeuticCategory: hepatoprotectant
  maximum recommended daily dose (mmol/kg-bw/day): 0.0711

## CCC(C)(C)C(=O)O[C@H]1C[C@@H](C)C=C2C=C[C@H](C)[C@H](CC[C@@H]3C[C@@H](O)CC(=O)O3)[C@H]21
TherapeuticCategory: antihyperlipoproteinemic
  maximum recommended daily dose (mmol/kg-bw/day): 0.00159

## Cc1cc2c(OCC(CNC(C)(C)C)OC(=O)c3ccccc3)cccc2[nH]1 (centres undefined)
TherapeuticCategory: antihypertensive
  maximum recommended daily dose (mmol/kg-bw/day): 4.39e-05

## COCC1=C(C(=O)OC(C)OC(=O)OC(C)C)N2C(=O)[C@@H](NC(=O)/C(=N\OC)c3csc(N)n3)[C@H]2SC1 (some centres undefined)
[1]
  maximum recommended daily dose (mmol/kg-bw/day): 0.0179

## CC1=C(CC(=O)O)c2cc(F)ccc2/C1=C/c1ccc(S(C)=O)cc1 (centres undefined)
TherapeuticCategory: anti inflammatory
  maximum recommended daily dose (mmol/kg-bw/day): 0.0187

## C[C@H]1C[C@H]2[C@@H]3CCC4=CC(=O)C=C[C@]4(C)[C@H]3C(=O)C[C@]2(C)[C@@]1(O)C(=O)CO
[2]
  maximum recommended daily dose (mmol/kg-bw/day): 0.00215

## CC(=O)O[C@H]1C[C@H](O[C@H]2[C@@H](O)C[C@H](O[C@H]3[C@@H](O)C[C@H](O[C@H]4CC[C@@]5(C)[C@H](CC[C@@H]6[C@@H]5C[C@@H](O)[C@]5(C)[C@@H](C7=CC(=O)OC7)CC[C@]65O)C4)O[C@@H]3C)O[C@@H]2C)O[C@H](C)[C@H]1O[C@@H]1O[C@H](CO)[C@@H](O)[C@H](O)[C@H]1O
TherapeuticCategory: cardiotonic
  maximum recommended daily dose (mmol/kg-bw/day): 3.38e-05
